Source: PubChem BioAssay (NCI)
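Briefly, cells in 96-well plates were exposed to five compound concentrations for 48 h, and endpoints were estimated by linear interpolation. TGI: concentration producing complete growth inhibition.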

What was measured:
Assay in all cases: NCI tumour cell line growth inhibition, 48 h
786-0 renal = test system: 786-0 renal
A549 NSCLC = test system: A549 NSCLC
ACHN renal = test system: ACHN renal
BT-549 breast = test system: BT-549 breast
CAKI-1 renal = test system: CAKI-1 renal
CCRF-CEM leukemia = test system: CCRF-CEM leukemia
COLO 205 colon = test system: COLO 205 colon
DU-145 prostate = test system: DU-145 prostate
EKVX NSCLC = test system: EKVX NSCLC
HCC-2998 colon = test system: HCC-2998 colon
HCT-116 colon = test system: HCT-116 colon
HCT-15 colon = test system: HCT-15 colon
HL-60(TB) leukemia = test system: HL-60(TB) leukemia
HOP-92 NSCLC = test system: HOP-92 NSCLC
HS 578T breast = test system: HS 578T breast
HT29 colon = test system: HT29 colon
IGROV1 ovarian = test system: IGROV1 ovarian
K-562 leukemia = test system: K-562 leukemia
KM12 colon = test system: KM12 colon
LOX IMVI melanoma = test system: LOX IMVI melanoma
M14 melanoma = test system: M14 melanoma
MALME-3M melanoma = test system: MALME-3M melanoma
MCF7 breast = test system: MCF7 breast
MDA-MB-231 breast = test system: MDA-MB-231 breast
MDA-MB-435 = test system: MDA-MB-435
MDA-N = test system: MDA-N
MOLT-4 leukemia = test system: MOLT-4 leukemia
NCI-H226 lung = test system: NCI-H226 lung
NCI-H23 lung = test system: NCI-H23 lung
NCI-H460 lung = test system: NCI-H460 lung
NCI-H522 lung = test system: NCI-H522 lung
NCI/ADR-RES ovarian = test system: NCI/ADR-RES ovarian
OVCAR-3 ovarian = test system: OVCAR-3 ovarian
OVCAR-4 ovarian = test system: OVCAR-4 ovarian
OVCAR-5 ovarian = test system: OVCAR-5 ovarian
OVCAR-8 ovarian = test system: OVCAR-8 ovarian
PC-3 prostate = test system: PC-3 prostate
RPMI-8226 leukemia = test system: RPMI-8226 leukemia
RXF 393 renal = test system: RXF 393 renal
SF-268 CNS = test system: SF-268 CNS
SF-295 CNS = test system: SF-295 CNS
SK-MEL-2 melanoma = test system: SK-MEL-2 melanoma
SK-MEL-28 melanoma = test system: SK-MEL-28 melanoma
SK-MEL-5 melanoma = test system: SK-MEL-5 melanoma
SK-OV-3 ovarian = test system: SK-OV-3 ovarian
SNB-19 CNS = test system: SNB-19 CNS
SNB-75 CNS = test system: SNB-75 CNS
SR leukemia = test system: SR leukemia
SW-620 colon = test system: SW-620 colon
T-47D breast = test system: T-47D breast
TK-10 renal = test system: TK-10 renal
UACC-257 melanoma = test system: UACC-257 melanoma
UACC-62 melanoma = test system: UACC-62 melanoma
UO-31 renal = test system: UO-31 renal
HOP-62 NSCLC = test system: HOP-62 NSCLC
SF-539 CNS = test system: SF-539 CNS
SN12C renal = test system: SN12C renal
U251 CNS = test system: U251 CNS

COC(=O)C(C)(Cc1ccc2c(c1)nnn2C(C)=O)NC(C)=O (configuration not stated) showed a TGI (786-0 renal) of over 100 µM, a TGI (A549 NSCLC) of over 100 µM and a TGI (ACHN renal) of over 100 µM. The TGI (BT-549 breast) was over 100 µM, the TGI (CAKI-1 renal) was over 100 µM and the TGI (CCRF-CEM leukemia) was over 100 µM. The TGI (COLO 205 colon) was over 100 µM, the TGI (DU-145 prostate) was over 100 µM and the TGI (EKVX NSCLC) was over 100 µM. For the same compound, the TGI (HCC-2998 colon) was over 100 µM, the TGI (HCT-116 colon) was over 100 µM and the TGI (HCT-15 colon) was over 100 µM. It also gave a TGI (HL-60(TB) leukemia) of over 100 µM, a TGI (HOP-92 NSCLC) of over 100 µM and a TGI (HS 578T breast) of over 100 µM. The TGI (HT29 colon) was over 100 µM, the TGI (IGROV1 ovarian) was over 100 µM and the TGI (K-562 leukemia) was over 100 µM. It also gave a TGI (KM12 colon) of over 100 µM, a TGI (LOX IMVI melanoma) of over 100 µM and a TGI (M14 melanoma) of over 100 µM. The TGI (MALME-3M melanoma) was over 100 µM, the TGI (MCF7 breast) was over 100 µM and the TGI (MDA-MB-231 breast) was over 100 µM. It also gave a TGI (MDA-MB-435) of over 100 µM, a TGI (MDA-N) of over 100 µM and a TGI (MOLT-4 leukemia) of over 100 µM. For the same compound, the TGI (NCI-H226 lung) was over 100 µM, the TGI (NCI-H23 lung) was over 100 µM and the TGI (NCI-H460 lung) was over 100 µM. The TGI (NCI-H522 lung) was over 100 µM, the TGI (NCI/ADR-RES ovarian) was over 100 µM and the TGI (OVCAR-3 ovarian) was over 100 µM. It also gave a TGI (OVCAR-4 ovarian) of over 100 µM, a TGI (OVCAR-5 ovarian) of over 100 µM and a TGI (OVCAR-8 ovarian) of over 100 µM. For the same compound, the TGI (PC-3 prostate) was over 100 µM, the TGI (RPMI-8226 leukemia) was over 100 µM and the TGI (RXF 393 renal) was over 100 µM. It also gave a TGI (SF-268 CNS) of over 100 µM, a TGI (SF-295 CNS) of over 100 µM and a TGI (SK-MEL-2 melanoma) of over 100 µM. It also gave a TGI (SK-MEL-28 melanoma) of over 100 µM, a TGI (SK-MEL-5 melanoma) of over 100 µM and a TGI (SK-OV-3 ovarian) of over 100 µM. It also gave a TGI (SNB-19 CNS) of over 100 µM, a TGI (SNB-75 CNS) of over 100 µM and a TGI (SR leukemia) of over 100 µM. The TGI (SW-620 colon) was over 100 µM, the TGI (T-47D breast) was over 100 µM and the TGI (TK-10 renal) was over 100 µM. It also gave a TGI (UACC-257 melanoma) of over 100 µM, a TGI (UACC-62 melanoma) of over 100 µM and a TGI (UO-31 renal) of over 100 µM.

With CC(C)OP(=O)(CCCCCCCCC/C=C/c1ccc2c(c1)OCCOCCOCCOCCO2)OC(C)C the TGI (786-0 renal) was 14.1 µM, the TGI (A549 NSCLC) was 13.6 µM and the TGI (ACHN renal) was 11.8 µM. The TGI (BT-549 breast) was 9.09 µM, the TGI (CAKI-1 renal) was 11.7 µM and the TGI (CCRF-CEM leukemia) was 7.5 µM. It also gave a TGI (COLO 205 colon) of 3.89 µM, a TGI (DU-145 prostate) of 15.2 µM and a TGI (EKVX NSCLC) of 11.8 µM. The TGI (HCC-2998 colon) was 14.2 µM, the TGI (HCT-116 colon) was 11.2 µM and the TGI (HCT-15 colon) was 10.3 µM. For the same compound, the TGI (HL-60(TB) leukemia) was 30.7 µM, the TGI (HOP-62 NSCLC) was 6.15 µM and the TGI (HOP-92 NSCLC) was 5.8 µM. It also gave a TGI (HS 578T breast) of 9.02 µM, a TGI (HT29 colon) of 11 µM and a TGI (IGROV1 ovarian) of 16.2 µM. For the same compound, the TGI (K-562 leukemia) was 24.1 µM, the TGI (KM12 colon) was 11 µM and the TGI (LOX IMVI melanoma) was 4.93 µM. For the same compound, the TGI (M14 melanoma) was 13.5 µM, the TGI (MALME-3M melanoma) was 13.7 µM and the TGI (MCF7 breast) was 11.2 µM. It also gave a TGI (MDA-MB-231 breast) of 12.6 µM, a TGI (MDA-MB-435) of 13.6 µM and a TGI (MDA-N) of 13.5 µM. It also gave a TGI (MOLT-4 leukemia) of 10.7 µM, a TGI (NCI-H226 lung) of 9.24 µM and a TGI (NCI-H23 lung) of 8.21 µM. It also gave a TGI (NCI-H460 lung) of 7.37 µM, a TGI (NCI-H522 lung) of 10.1 µM and a TGI (NCI/ADR-RES ovarian) of 10.5 µM. The TGI (OVCAR-3 ovarian) was 10 µM, the TGI (OVCAR-4 ovarian) was 16.2 µM and the TGI (OVCAR-5 ovarian) was 11.4 µM. The TGI (OVCAR-8 ovarian) was 12.1 µM, the TGI (PC-3 prostate) was 9.51 µM and the TGI (RPMI-8226 leukemia) was over 100 µM. For the same compound, the TGI (RXF 393 renal) was 9.12 µM, the TGI (SF-268 CNS) was 16.8 µM and the TGI (SF-295 CNS) was 10.3 µM. The TGI (SF-539 CNS) was 12.4 µM, the TGI (SK-MEL-2 melanoma) was 8.69 µM and the TGI (SK-MEL-28 melanoma) was 20.1 µM. It also gave a TGI (SK-MEL-5 melanoma) of 7.76 µM, a TGI (SK-OV-3 ovarian) of 9.19 µM and a TGI (SN12C renal) of 14.2 µM. It also gave a TGI (SNB-19 CNS) of 15.2 µM, a TGI (SNB-75 CNS) of 10.4 µM and a TGI (SR leukemia) of 15.4 µM. The TGI (SW-620 colon) was 14.7 µM, the TGI (T-47D breast) was 9.11 µM and the TGI (TK-10 renal) was 21.4 µM. The TGI (U251 CNS) was 7.74 µM, the TGI (UACC-257 melanoma) was 10.2 µM and the TGI (UACC-62 melanoma) was 14.8 µM. For the same compound, the TGI (UO-31 renal) was 9.02 µM.

Clc1ccc(C(c2ccc(Cl)cc2)c2cncnc2)cc1 gave a TGI (786-0 renal) of 33 µM, a TGI (A549 NSCLC) of 38.5 µM and a TGI (ACHN renal) of 36.4 µM. The TGI (BT-549 breast) was 27.4 µM, the TGI (CAKI-1 renal) was 39.7 µM and the TGI (CCRF-CEM leukemia) was 44.8 µM. For the same compound, the TGI (COLO 205 colon) was 33.2 µM, the TGI (DU-145 prostate) was 31.3 µM and the TGI (HCT-116 colon) was 26.9 µM. For the same compound, the TGI (HCT-15 colon) was 39.1 µM, the TGI (HL-60(TB) leukemia) was over 100 µM and the TGI (HOP-62 NSCLC) was 31.3 µM. The TGI (HS 578T breast) was 39.9 µM, the TGI (HT29 colon) was 28.3 µM and the TGI (IGROV1 ovarian) was 33.8 µM. For the same compound, the TGI (K-562 leukemia) was over 100 µM, the TGI (KM12 colon) was 37 µM and the TGI (LOX IMVI melanoma) was 31.2 µM. The TGI (M14 melanoma) was 30 µM, the TGI (MALME-3M melanoma) was 36.1 µM and the TGI (MCF7 breast) was 30 µM. It also gave a TGI (MDA-MB-231 breast) of 34 µM, a TGI (MDA-MB-435) of 28 µM and a TGI (MDA-N) of 29.3 µM. It also gave a TGI (MOLT-4 leukemia) of 67.6 µM, a TGI (NCI-H23 lung) of 36.9 µM and a TGI (NCI-H460 lung) of 31.4 µM. For the same compound, the TGI (NCI-H522 lung) was 33.3 µM, the TGI (NCI/ADR-RES ovarian) was 44.4 µM and the TGI (OVCAR-3 ovarian) was 27.9 µM. The TGI (OVCAR-4 ovarian) was 29 µM, the TGI (OVCAR-5 ovarian) was 29.5 µM and the TGI (OVCAR-8 ovarian) was 42.5 µM. The TGI (PC-3 prostate) was 27.3 µM, the TGI (RPMI-8226 leukemia) was over 100 µM and the TGI (RXF 393 renal) was 25.2 µM. The TGI (SF-268 CNS) was 33.8 µM, the TGI (SF-295 CNS) was 35.6 µM and the TGI (SK-MEL-28 melanoma) was 33.4 µM. It also gave a TGI (SK-MEL-5 melanoma) of 25.9 µM, a TGI (SK-OV-3 ovarian) of 33.4 µM and a TGI (SN12C renal) of 36.6 µM. For the same compound, the TGI (SNB-19 CNS) was 33 µM, the TGI (SR leukemia) was over 100 µM and the TGI (T-47D breast) was 32.3 µM. It also gave a TGI (TK-10 renal) of 30.8 µM, a TGI (U251 CNS) of 32.1 µM and a TGI (UACC-257 melanoma) of 49.1 µM. For the same compound, the TGI (UACC-62 melanoma) was 28.7 µM and the TGI (UO-31 renal) was 25.1 µM.
